From patent US10004732B2 (Novartis AG, priority 2014, dated 2018) come the findings set out here.

For orientation: IC50 means the concentration at which inhibition is half-maximal.

Structures can show the parent of a compound that is named as a salt. Where only a bound is given, the exact number is not on record here.

Data set [1] has as its target T1, PI 3-kinase delta (Homo sapiens, UniProt O00329). The experiment in a line: TR-FRET Adapta assay, assay F. The settings on record: read-out: Assay F PI3Kδ IC50. (In general: TR-FRET usually uses a lanthanide donor and a delayed reading to cut background.)
Target sequence in this assay (O00329 whole entry): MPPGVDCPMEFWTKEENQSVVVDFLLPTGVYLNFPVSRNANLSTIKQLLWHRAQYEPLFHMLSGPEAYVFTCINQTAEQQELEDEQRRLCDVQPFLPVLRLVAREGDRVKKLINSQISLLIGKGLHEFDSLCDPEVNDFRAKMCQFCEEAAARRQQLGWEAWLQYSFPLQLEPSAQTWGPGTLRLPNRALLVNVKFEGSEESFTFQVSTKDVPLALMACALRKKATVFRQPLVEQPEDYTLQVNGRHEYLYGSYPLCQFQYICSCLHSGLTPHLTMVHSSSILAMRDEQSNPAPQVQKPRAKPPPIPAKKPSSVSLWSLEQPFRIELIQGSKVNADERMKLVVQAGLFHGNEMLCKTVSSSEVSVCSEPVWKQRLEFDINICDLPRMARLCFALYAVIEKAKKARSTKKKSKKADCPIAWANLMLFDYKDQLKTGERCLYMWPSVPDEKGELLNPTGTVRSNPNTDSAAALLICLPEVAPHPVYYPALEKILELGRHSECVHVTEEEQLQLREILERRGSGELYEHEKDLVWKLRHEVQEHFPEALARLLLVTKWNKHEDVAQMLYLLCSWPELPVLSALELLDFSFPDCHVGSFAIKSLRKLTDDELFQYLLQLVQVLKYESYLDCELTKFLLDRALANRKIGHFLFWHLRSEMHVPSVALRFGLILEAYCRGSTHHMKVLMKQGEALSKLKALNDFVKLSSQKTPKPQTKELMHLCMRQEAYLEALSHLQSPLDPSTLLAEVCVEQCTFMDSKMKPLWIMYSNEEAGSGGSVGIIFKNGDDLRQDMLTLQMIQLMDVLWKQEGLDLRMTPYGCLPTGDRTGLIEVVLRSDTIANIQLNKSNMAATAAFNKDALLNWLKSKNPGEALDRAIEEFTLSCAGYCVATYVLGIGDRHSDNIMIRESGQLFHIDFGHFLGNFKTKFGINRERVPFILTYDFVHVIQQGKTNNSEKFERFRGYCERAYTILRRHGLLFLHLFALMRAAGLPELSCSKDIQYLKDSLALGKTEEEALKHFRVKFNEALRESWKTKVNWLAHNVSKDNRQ
Target sequence in this assay (P27986 461-568 partner): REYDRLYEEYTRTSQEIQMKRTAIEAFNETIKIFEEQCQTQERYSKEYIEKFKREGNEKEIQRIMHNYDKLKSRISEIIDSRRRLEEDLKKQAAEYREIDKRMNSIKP
Procedure: TR-FRET Adapta Assay for PI 3-Kinase Gamma (E), PI 3-Kinase Delta (F)
The TR-FRET Adapta™ Universal Kinase Assay Kit was purchased from Invitrogen Corporation (Carlsbad/CA, USA) (Cat. No. PV5099).
PIK3CD substrate phosphatidylinositol (PI) was obtained from Invitrogen (vesicules consisting of 2 mM phosphatidylinositol (PI) in 50 mM HEPES pH7.5; Cat. No. PV5371). PIK3CG substrate phosphatidylinositol-4,5-bisphosphate (PIP(4,5)2 was obtained from Invitrogen (PIP2:PS large unilamellar vesicules consisting of 1 mM PIP2: 19 mM PS in 50 mM HEPES pH7.5, 3 mM MgCl2, 1 mM EGTA; Cat. No. PV5100).
Time-Resolved Fluorescence Resonance Energy Transfer (TR-FRET) is a technology based on energy transfer between two adjacent dyes, from an excited electron in one dye (the donor) to an electron of an adjacent dye (the acceptor) through resonance, then released as a photon. This energy transfer is detected by an increase in the fluorescence emission of the acceptor, and a decrease in the fluorescence emission of the donor. TR-FRET assays for protein kinases use a long-lifetime lanthanide Terbium or Europium chelates as the donor species which overcome interference from compound autofluorescence or light scatter from precipitated compounds, by introducing a delay after excitation by a flashlamp excitation source. Results are often expressed as a ratio of the intensities of the acceptor and donor fluorophores. The ratiometric nature of such a value corrects for differences in assay volumes between wells, as well as corrects for quenching effects due to colored compounds. The Adapta™ assay can be divided into two phases: a kinase reaction phase and an ADP detection phase. In the kinase reaction phase, all kinase reaction components are added to the well and the reaction is allowed to incubate for a set period of time specific for each kinase. […] In the presence of an inhibitor, the amount of ADP formed by the kinase reaction is reduced, and the resulting intact antibody-tracer interaction maintains a high TR-FRET signal.
50 nL of compound dilutions were dispensed onto white 384-well small volume polystyrene plate. Then 5 μL of either PI 3-kinase gamma or PI 3-kinase delta and lipid substrate (PI or PIP2:PS) followed by 5 μL of ATP (final assay volume 10 μL) are incubated at RT. The standard reaction buffer for the Adapta™ TR-FRET assay contained 10 mM Tris-HCl pH 7.5, 3 mM MgCl2, 50 mM NaCl, 1 mM DTT, 0.05% CHAPS 3-[(3-cholamidopropyl)dimethylammonio]-1-propanesulfonate).
Data are analyzed using Excel fit software or Graphpad Prism. IC50 values were derived by fitting a sigmoidal dose-response curve to a plot of assay readout over inhibitor concentration. All fits were performed with the program XLfit4 (ID Business Solutions, Guildford, UK). […] All fits were performed with the program XLfit4 (ID Business Solutions, Guildford, UK).
For data set [2], the target named is T1, PI 3-kinase delta. Description: Cellular assay J1, p-Akt (S473) in Rat-1 cells, Surefire format. The settings on record: non-asterisked data: version J1 (Surefire format), Rat-1 cells; read-out: Assay J PI3Kδ IC50. It is filed as cell-based.
Target sequence in this assay (O00329 whole entry): as the sequence (O00329 whole entry) above
Target sequence in this assay (Q63787 whole entry partner): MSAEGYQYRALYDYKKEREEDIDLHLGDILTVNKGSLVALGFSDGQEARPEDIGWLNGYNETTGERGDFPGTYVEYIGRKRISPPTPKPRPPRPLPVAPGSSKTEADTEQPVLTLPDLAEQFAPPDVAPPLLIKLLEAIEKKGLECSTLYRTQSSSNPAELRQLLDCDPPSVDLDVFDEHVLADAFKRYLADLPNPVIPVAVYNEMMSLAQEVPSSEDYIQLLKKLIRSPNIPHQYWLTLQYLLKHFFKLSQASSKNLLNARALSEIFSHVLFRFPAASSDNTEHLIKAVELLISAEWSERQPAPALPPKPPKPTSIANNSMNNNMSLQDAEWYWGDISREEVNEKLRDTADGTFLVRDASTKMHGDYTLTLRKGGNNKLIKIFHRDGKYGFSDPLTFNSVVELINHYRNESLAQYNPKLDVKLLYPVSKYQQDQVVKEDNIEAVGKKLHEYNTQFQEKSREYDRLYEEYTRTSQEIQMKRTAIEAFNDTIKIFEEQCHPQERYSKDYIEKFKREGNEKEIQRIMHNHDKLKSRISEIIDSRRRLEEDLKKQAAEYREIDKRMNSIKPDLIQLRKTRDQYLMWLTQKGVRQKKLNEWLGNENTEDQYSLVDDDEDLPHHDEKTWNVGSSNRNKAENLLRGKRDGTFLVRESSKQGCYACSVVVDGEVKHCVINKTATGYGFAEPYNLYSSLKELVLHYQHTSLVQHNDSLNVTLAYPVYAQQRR
The target of data set [3] is T2, PI 3-kinase alpha (Homo sapiens, UniProt P42336). The experiment in a line: Kinase Glo Luminescent Kinase Assay (Kglo), assay A. It is filed as biochemical. Particulars: read-out: Assay A PI3Kα IC50. A general note: Kinase-Glo measures the ATP left after a reaction by luminescence.
For the next data set, the target named is Vps34 (Homo sapiens, UniProt Q8NEB9). Description: Kinase Glo Luminescent Kinase Assay (Kglo), assay C. Format: biochemical. The settings on record: read-out: Assay C VPS34 IC50.
Data set [4] deals with T2, PI 3-kinase alpha. The experiment in a line: Cellular assay H1, p-Akt (S473) in Rat-1 cells, Surefire format. It is filed as cell-based. The settings on record: non-asterisked data: version H1 (Surefire format), Rat-1 cells; read-out: Assay H PI3Kα IC50.
A further data set concerns the target PI 4-kinase beta (Homo sapiens, UniProt Q9UBF8). Description: Kinase Glo Luminescent Kinase Assay (Kglo), assay D. Format: biochemical. The settings on record: read-out: Assay D PI4Kβ IC50.
Data set [5] is described as follows: Microsomal clearance assay (M). Particulars: intrinsic clearance in rat liver microsomes. In general terms: Liver microsomes are a subcellular fraction often used to study metabolism.
Procedure: The experiments were performed in 96-well glass plates at 37° C. on an automated Tecan EVO platform. Test compounds at a concentration of 10 mM in pure DMSO were diluted 1:1000 in water to 10 μM. […] Reactions were initiated by the addition of 150 μL of a cofactor solution containing 2 mM NADPH.
Data set [6] addresses T3, PI 3-kinase beta (Homo sapiens, UniProt P42338). The experiment in a line: Kinase Glo Luminescent Kinase Assay (Kglo), assay B. The settings on record: read-out: Assay B PI3Kβ IC50. Format: biochemical.
Data set [7] deals with T3, PI 3-kinase beta. Description: Cellular assay I1, p-Akt (S473) in Rat-1 cells, Surefire format. Format: cell-based. Particulars: non-asterisked data: version I1 (Surefire format), Rat-1 cells; read-out: Assay I PI3Kβ IC50.
Source text: Cellular Assays for PI 3-Kinase Alpha (H1), Beta (I1) and Delta (J1): Surefire Format
AlphaScreen (Amplified Luminescent Proximity Homogeneous Assay, ALPHA, Perkin Elmer) is a non-radioactive bead-based proximity assay technology to study biomolecular interactions in a homogenous microtiter plate format. The brand name SureFire denotes AlphaScreen assays that are adapted to quantify the phosphorylation of endogenous cellular proteins in cell lysates, by using matched antibody pairs, which consist of an anti-phospho-kinase and an anti-kinase antibody. The assay allows characterization of kinase signaling in cells as well as measurement of kinase inhibitor effects.
Using Rat-1 cells stably expressing myr-HA-tagged versions of the human PI3Kdelta, PI3Kalpha, or PI3Kbeta p110 catalytic subunit isoforms, the assay was developed as a two-plate protocol in a 384-well format.
For compound testing, the cells were seeded at a density of 4000 (Rat-1_PI3Kdelta), 7500 (Rat-1_PI3Kalpha), or 6200 (Rat-1_PI3Kbeta) cells in 20 μl complete growth medium into cell culture treated 384-well plates and were grown at 37° C./5% CO2/90% humidity for 24 h. Shortly before compound transfer, the complete medium was removed, 30 μl assay buffer (DMEM high glucose, 1×MEM NEAA, 10 mM HEPES, 2 mM L-glutamine, 0.1% (w/v) BSA) was added and 10 μl of the compound predilutions were transferred to the cells.
The target of a further data set is mTOR (Homo sapiens, UniProt P42345). The experiment in a line: Lanthascreen kinase binding assay, assay G. The settings on record: read-out: Assay G mTOR IC50.
Data set [8] addresses T4, PI 3-kinase gamma (Homo sapiens, UniProt P48736). The experiment in a line: TR-FRET Adapta assay, assay E. Format: biochemical. The settings on record: read-out: Assay E PI3Kγ IC50.
Data set [9] relates to IL-8-induced neutrophil shape change in human whole blood. Description: Whole blood neutrophil shape change assay (L). It is filed as cell-based. The settings on record: Homo sapiens, Neutrophil, IL-8, human whole blood, read-out: Assay L WBSC IC50.
Procedure: Whole Blood Neutrophil Shape Change Assay (L)
IL-8 was made up to 2 μM stocks in 0.1% bovine serum albumin/PBS and stored at −80° C. On the day IL-8 was diluted in PBS (phosphate buffered saline) 10 minutes before use. IL-8 was used at final concentration of 2 nM and a concentration range from 0.003 to 200 nM for the donor dose response curve.
Assay fixative solution was prepared fresh each day from 10× concentrated CellFIX™ solution diluted 1:10 in sterile distilled water and then 1:4 with PBS. Assay fixative solution was kept on ice prior to use.
A 10× lysis buffer was prepared in advance by dissolving 20.75 g NH4Cl and 2.5 g KHCO3 in 250 ml sterile H2O. This 10× lysis buffer was filtered under sterile conditions and stored for up to two weeks at 4° C. On the day a 1× lysis solution was prepared with sterile distilled H2O and kept on ice prior to use.
The test compounds were prepared as 10 mM stock solutions in 100% DMSO and were stored at 4° C. Once in use for an assay 10 mM stock compounds were thawed and stored at RT protected from light. Compound dilutions were prepared fresh on the day. The first series of dilutions in 100% DMSO were done first thing in the morning. Only once blood had been collected and arrived in laboratory was the next set of dilutions into PBS carried out (1:10 PBS, 10% DMSO). This limited the exposure of diluted compound to plastic and made sure the exposure timing was consistent between assays.
Compound dilutions in 100% DMSO were prepared as described previously. Human whole blood was collected in K2 EDTA Vacutainers. Once blood was in the laboratory, compound dilutions into PBS were carried out as described previously and depicted in Table 1.
The outer wells of the deep well assay plate were filled with 1200 μl of sterile distilled H2O in an effort to limit edge effects (rows A1-H1, A1-A12, A12-H12).
An IL-8 dose response was determined for each blood donor examined, to monitor the donor response to IL-8. At this step in assay preparation for the IL-8 dose response samples 10 μl of PBS was added to designated wells. In addition the assay window without DMSO was also assessed each day. For such samples at this step in assay preparation 10 μl of PBS was added in the place of 10% DMSO.
Lids were placed on the 96 well plates and samples were incubated for 15 minutes at 37° C. in a water-bath.
Following the compound pre-incubation 10× final IL-8 was added to appropriate wells (10 μl of 20 nM working stock IL-8, final IL-8 concentration in blood=2 nM) and 10 μl of PBS was added to the un-stimulated controls. 10× final dose response range IL-8 was also added to designated wells (final concentration range on assay plate was 200 nM to 0.0005 nM, 1:5 serial dilution in PBS). The IL-8 and PBS were added to appropriate wells across all assay plates in the same sequence as the blood to compound addition. […] Samples were incubated for 5 minutes at 37° C. in a water-bath. Following the incubation sample plates were transferred to ice where 250 μl of chilled Assay Fixative Buffer was added promptly to all wells.
Samples were incubated on ice for 7 minutes (no mixing). […] Once added samples were mixed once and incubated on ice for 30 minutes to achieve uniform red blood cells lysis. After lysis, 200 μl of sample was transferred to a 96 well microplate on ice. […] Granulocytes were identified based on differential side scatter (SSC) and forward scatter (FSC) characteristics.
The target in data set [10] is T4, PI 3-kinase gamma. The experiment in a line: Cellular U937 AKT assay K1 (MSD). It is filed as cell-based. Particulars: U937 cells, K1 format; read-out: Assay K1 PI3Kγ IC50.

Sequence of PI 4-kinase beta (Q9UBF8 whole entry): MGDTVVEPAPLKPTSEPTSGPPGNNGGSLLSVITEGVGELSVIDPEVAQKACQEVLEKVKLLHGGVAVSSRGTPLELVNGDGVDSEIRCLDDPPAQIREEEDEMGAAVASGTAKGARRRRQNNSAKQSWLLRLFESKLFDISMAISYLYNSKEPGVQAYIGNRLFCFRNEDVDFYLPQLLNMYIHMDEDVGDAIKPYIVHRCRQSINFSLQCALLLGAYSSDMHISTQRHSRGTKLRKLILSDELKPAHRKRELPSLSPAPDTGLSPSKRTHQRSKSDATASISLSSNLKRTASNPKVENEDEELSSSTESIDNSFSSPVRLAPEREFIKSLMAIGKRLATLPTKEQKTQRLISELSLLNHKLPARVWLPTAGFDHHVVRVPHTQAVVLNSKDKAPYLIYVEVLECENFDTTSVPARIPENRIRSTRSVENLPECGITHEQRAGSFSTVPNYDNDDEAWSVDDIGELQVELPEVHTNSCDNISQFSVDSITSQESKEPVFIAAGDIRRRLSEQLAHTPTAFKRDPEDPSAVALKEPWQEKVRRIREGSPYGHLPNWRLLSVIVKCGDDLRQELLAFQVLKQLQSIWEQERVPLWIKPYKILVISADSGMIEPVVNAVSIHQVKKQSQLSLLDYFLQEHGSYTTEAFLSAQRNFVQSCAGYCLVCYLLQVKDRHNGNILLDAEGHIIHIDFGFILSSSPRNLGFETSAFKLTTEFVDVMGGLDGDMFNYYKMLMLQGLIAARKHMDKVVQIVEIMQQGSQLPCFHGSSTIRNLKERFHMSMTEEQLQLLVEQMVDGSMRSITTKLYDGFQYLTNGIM
Sequence of Vps34 (Q8NEB9 whole entry, species assumed): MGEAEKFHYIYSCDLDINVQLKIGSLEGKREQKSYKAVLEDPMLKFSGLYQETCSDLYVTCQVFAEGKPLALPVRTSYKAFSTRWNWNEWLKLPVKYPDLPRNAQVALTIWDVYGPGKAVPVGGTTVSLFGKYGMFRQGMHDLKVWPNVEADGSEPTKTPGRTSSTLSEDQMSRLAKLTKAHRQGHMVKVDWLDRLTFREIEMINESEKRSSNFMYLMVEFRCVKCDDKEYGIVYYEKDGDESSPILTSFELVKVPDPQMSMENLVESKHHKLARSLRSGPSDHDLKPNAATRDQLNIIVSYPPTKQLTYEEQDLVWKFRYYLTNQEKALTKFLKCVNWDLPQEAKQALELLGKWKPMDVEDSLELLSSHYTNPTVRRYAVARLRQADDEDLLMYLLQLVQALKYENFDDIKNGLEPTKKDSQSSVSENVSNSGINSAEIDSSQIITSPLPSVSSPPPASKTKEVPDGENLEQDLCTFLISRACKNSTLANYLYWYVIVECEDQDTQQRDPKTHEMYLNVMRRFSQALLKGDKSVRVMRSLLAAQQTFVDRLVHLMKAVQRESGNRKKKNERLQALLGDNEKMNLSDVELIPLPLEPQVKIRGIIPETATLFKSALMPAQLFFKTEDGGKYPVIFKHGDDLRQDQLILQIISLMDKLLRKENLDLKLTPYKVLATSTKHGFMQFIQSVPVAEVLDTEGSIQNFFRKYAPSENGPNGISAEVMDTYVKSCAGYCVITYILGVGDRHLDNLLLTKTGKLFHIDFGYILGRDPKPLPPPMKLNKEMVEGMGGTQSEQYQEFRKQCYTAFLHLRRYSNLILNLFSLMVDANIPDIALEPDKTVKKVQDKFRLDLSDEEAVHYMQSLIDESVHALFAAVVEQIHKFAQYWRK
T4 sequence (P48736 whole entry): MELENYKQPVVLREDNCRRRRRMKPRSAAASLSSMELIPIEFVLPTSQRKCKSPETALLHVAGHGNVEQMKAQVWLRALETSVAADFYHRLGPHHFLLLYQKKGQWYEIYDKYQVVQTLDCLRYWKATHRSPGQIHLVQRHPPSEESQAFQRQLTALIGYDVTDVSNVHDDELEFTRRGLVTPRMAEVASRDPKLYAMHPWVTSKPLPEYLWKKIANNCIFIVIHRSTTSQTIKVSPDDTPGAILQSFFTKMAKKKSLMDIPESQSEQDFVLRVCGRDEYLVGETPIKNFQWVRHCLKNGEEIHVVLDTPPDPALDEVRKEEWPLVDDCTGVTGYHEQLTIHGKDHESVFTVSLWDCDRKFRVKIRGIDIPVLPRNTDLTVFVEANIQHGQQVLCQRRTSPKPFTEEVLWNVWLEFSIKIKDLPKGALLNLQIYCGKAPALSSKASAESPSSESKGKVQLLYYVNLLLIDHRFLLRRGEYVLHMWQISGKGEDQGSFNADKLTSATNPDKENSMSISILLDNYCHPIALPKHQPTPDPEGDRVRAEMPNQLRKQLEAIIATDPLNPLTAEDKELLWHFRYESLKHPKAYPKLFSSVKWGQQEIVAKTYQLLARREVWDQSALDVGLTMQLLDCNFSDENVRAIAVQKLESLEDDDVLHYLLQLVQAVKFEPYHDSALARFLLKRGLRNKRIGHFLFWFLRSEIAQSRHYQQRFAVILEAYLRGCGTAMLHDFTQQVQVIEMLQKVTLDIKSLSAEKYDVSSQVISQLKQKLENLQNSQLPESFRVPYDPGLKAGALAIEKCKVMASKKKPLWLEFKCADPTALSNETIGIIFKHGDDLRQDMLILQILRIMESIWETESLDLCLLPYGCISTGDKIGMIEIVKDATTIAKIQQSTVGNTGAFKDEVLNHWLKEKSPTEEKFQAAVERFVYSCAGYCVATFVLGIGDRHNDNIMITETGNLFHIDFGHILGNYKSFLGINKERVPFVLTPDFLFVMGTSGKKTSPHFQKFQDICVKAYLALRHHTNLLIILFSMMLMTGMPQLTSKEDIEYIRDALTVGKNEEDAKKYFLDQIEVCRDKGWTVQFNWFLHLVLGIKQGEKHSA
Procedure for mTOR: Lanthascreen™ Kinase Binding Assay for mTOR (G)
Binding of an inhibitor to the kinase competes for binding with the tracer, resulting in a loss of FRET.
50 nL of compound dilutions were dispensed onto white 384-well small volume polystyrene plate.

Regarding `Cc1ccc(S(=O)(=O)NOCC(C)(C)O)cc1-c1cnc(N)c(-n2cncn2)n1` [Example 31, 3-(5-Amino-6-[1,2,4]triazol-1-yl-pyrazin-2-yl)-N-(2-hydroxy-2-methyl-propoxy)-4-methyl-benzenesulfonamide], the IC50 on PI 3-kinase delta [1] was 120 nM; at PI 3-kinase delta [2] it was 1030 nM; on PI 3-kinase alpha [3], 160 nM; at Vps34, above 9550 nM; at PI 3-kinase alpha [4], 1040 nM; on PI 4-kinase beta it was 4400 nM. Also, the half-maximal inhibitory concentration (IC50) at PI 3-kinase beta [6] is 2000 nM; at PI 3-kinase beta [7] it was 2510 nM; at mTOR, 3800 nM; on PI 3-kinase gamma [8], 27 nM; in [9], 917 nM; on PI 3-kinase gamma [10], 40 nM. The “Assay M RLM CI(int)” value in [5] was determined as 37 µL/min/mg.
For the molecule `Cc1ccc(S(=O)(=O)NOCC(C)(C)O)cc1-c1cnc(N)c(-c2cn(C)nc2C)n1` [Example 125, 3-(5-Amino-6-(1,3-dimethyl-1H-pyrazol-4-yl)pyrazin-2-yl)-N-(2-hydroxy-2-methylpropoxy)-4-methylbenzenesulfonamide], the half-maximal inhibitory concentration (IC50) at PI 3-kinase delta [1] is 130 nM; on PI 3-kinase delta [2] it was 230 nM; on PI 3-kinase alpha [3], 280 nM; at Vps34, above 10000 nM; on PI 3-kinase alpha [4], 2810 nM; on PI 4-kinase beta it was 7600 nM. In addition, the IC50 at PI 3-kinase beta [6] was 6000 nM; on PI 3-kinase beta [7], 3470 nM; at mTOR, above 10000 nM; on PI 3-kinase gamma [8], 100 nM; in [9], 879 nM; on PI 3-kinase gamma [10], 51 nM. In addition, in [5], the “Assay M RLM CI(int)” value came out at 8 µL/min/mg.
Take `Cc1ncc(-c2nc(-c3cc(S(=O)(=O)NCC(C)(C)CO)ccc3C)cnc2N)s1` [Example 8, 3-[5-Amino-6-(2-methyl-thiazol-5-yl)-pyrazin-2-yl]-N-(3-hydroxy-2,2-dimethyl-propyl)-4-methyl-benzenesulfonamide]: the 50% inhibitory concentration (IC50) at PI 3-kinase delta [1] is 20 nM; on PI 3-kinase delta [2], 370 nM; at PI 3-kinase alpha [3] it was 40 nM; on Vps34, 410 nM; at PI 3-kinase alpha [4], 750 nM; at PI 4-kinase beta it was 1960 nM. Moreover, the IC50 on PI 3-kinase beta [6] was 1520 nM; on PI 3-kinase beta [7] it was 6030 nM; at mTOR, 270 nM; at PI 3-kinase gamma [8], below 3 nM; in data set [9] it was 169 nM; on PI 3-kinase gamma [10] it was 21 nM. Besides, the “Assay M RLM CI(int)” value in data set [5] came out at 50 µL/min/mg.
Turning to `Cc1ccc(S(=O)(=O)NCCC(C)(C)O)cc1-c1cnc(N)c(-c2cnn(C(C)C)c2)n1` [Example 119.31], the IC50 at PI 3-kinase delta [1] was 110 nM; at PI 3-kinase delta [2], 1240 nM; at PI 3-kinase alpha [3], 160 nM; at Vps34, above 9100 nM; at PI 3-kinase alpha [4], 2830 nM; on PI 4-kinase beta, 3740 nM. In addition, the IC50 was 7850 nM at PI 3-kinase beta [6]; 6990 nM on PI 3-kinase beta [7]; 2230 nM on mTOR; 7 nM at PI 3-kinase gamma [8]; 1660 nM in data set [9]; 46 nM at PI 3-kinase gamma [10]. In addition, in [5], the “Assay M RLM CI(int)” value worked out at 79 µL/min/mg.
With `CCN1CCC[C@@H]1CNS(=O)(=O)c1ccc(C)c(-c2cnc(N)c(-c3cn(C)nc3C)n2)c1` [Example 27, 3-[5-Amino-6-(1,3-dimethyl-1H-pyrazol-4-yl)-pyrazin-2-yl]-N—((R)-1-ethyl-pyrrolidin-2-ylmethyl)-4-methyl-benzenesulfonamide hydrochloride], the IC50 was 70 nM at PI 3-kinase delta [1]; 1020 nM at PI 3-kinase delta [2]; 210 nM on PI 3-kinase alpha [3]; above 10000 nM at Vps34; above 10000 nM at PI 3-kinase alpha [4]; 6650 nM at PI 4-kinase beta. For the same molecule, the concentration for half-maximal inhibition (IC50) was 870 nM at PI 3-kinase beta [6]; above 10000 nM at PI 3-kinase beta [7]; 7400 nM on mTOR; 47 nM on PI 3-kinase gamma [8]; 562 nM in [9]; 58 nM at PI 3-kinase gamma [10]. Further, the “Assay M RLM CI(int)” value in [5] worked out at 60 µL/min/mg.
With `Cc1ccc(S(=O)(=O)N[C@H]2CC[C@H](O)CC2)cc1-c1cnc(N)c(-c2nc(C3CC3)no2)n1` [Example 24, Trans-3-[5-Amino-6-(3-cyclopropyl-[1,2,4]oxadiazol-5-yl)-pyrazin-2-yl]-N-(4-hydroxy-cyclohexyl)-4-methyl-benzene sulfonamide], the concentration for half-maximal inhibition (IC50) at PI 3-kinase delta [1] is 60 nM; at PI 3-kinase delta [2], 660 nM; at PI 3-kinase alpha [3] it was 200 nM; at Vps34, above 9100 nM; at PI 3-kinase alpha [4], 1060 nM; at PI 4-kinase beta, above 9100 nM. Also, the concentration for half-maximal inhibition (IC50) at PI 3-kinase beta [6] turned out to be 6060 nM; at PI 3-kinase beta [7] it was 6250 nM; at mTOR it was 7910 nM; on PI 3-kinase gamma [8], 7 nM; in data set [9], 561 nM; at PI 3-kinase gamma [10], 53 nM. In addition, in data set [5], the “Assay M RLM CI(int)” value was found to be 43 µL/min/mg.
As for `Cc1ccc(S(=O)(=O)NC2CC3(CC(O)C3)C2)cc1-c1cnc(N)c(-n2cncn2)n1` (stereo not drawn) [Example 67, 3-(5-Amino-6-(1H-1,2,4-triazol-1-yl)pyrazin-2-yl)-N-(6-hydroxyspiro[3.3]heptan-2-yl)-4-methylbenzenesulfonamide], the IC50 was found to be 160 nM at PI 3-kinase delta [1]; 920 nM on PI 3-kinase delta [2]; 90 nM on PI 3-kinase alpha [3]; 1800 nM on Vps34; 1330 nM at PI 3-kinase alpha [4]; 7400 nM at PI 4-kinase beta. The IC50 at PI 3-kinase beta [6] was found to be 860 nM; at PI 3-kinase beta [7], 2930 nM; at mTOR, 2200 nM; at PI 3-kinase gamma [8] it was 3 nM; in data set [9] it was 249 nM; on PI 3-kinase gamma [10], 68 nM. Moreover, in [5], the “Assay M RLM CI(int)” value worked out at 36 µL/min/mg.
Consider `Cc1ccc(S(=O)(=O)N[C@H]2CC[C@H](O)CC2)cc1-c1cnc(N)c(-c2ccncc2)n1` [Example 11, Trans-3-(5-Amino-6-(pyridin-4-yl)pyrazin-2-yl)-N-(4-hydroxycyclohexyl)-4-methylbenzenesulfonamide], for which the IC50 at PI 3-kinase delta [1] is 130 nM; at PI 3-kinase delta [2], 3520 nM; at PI 3-kinase alpha [3], 140 nM; on Vps34, above 9100 nM; on PI 3-kinase alpha [4], 2570 nM; at PI 4-kinase beta, 3580 nM. For the same molecule, the half-maximal inhibitory concentration (IC50) was found to be 2620 nM on PI 3-kinase beta [6]; 6910 nM at PI 3-kinase beta [7]; 5890 nM on mTOR; 10 nM at PI 3-kinase gamma [8]; 157 nM in data set [9]; 57 nM at PI 3-kinase gamma [10]. Moreover, the “Assay M RLM CI(int)” value in data set [5] worked out at 78 µL/min/mg.
Turning to `Cc1cc(F)c(S(=O)(=O)NCCC(C)(C)O)cc1-c1cnc(N)c(-c2cnn(C)c2)n1` [Example 115, 5-(5-Amino-6-(1-methyl-1H-pyrazol-4-yl)pyrazin-2-yl)-2-fluoro-N-(3-hydroxy-3-methylbutyl)-4-methylbenzenesulfonamide], the IC50 was found to be 480 nM on PI 3-kinase delta [1]; 2210 nM on PI 3-kinase delta [2]; 320 nM at PI 3-kinase alpha [3]; 8990 nM at Vps34; 2980 nM on PI 3-kinase alpha [4]; 5640 nM on PI 4-kinase beta. Further, the IC50 at PI 3-kinase beta [6] is 2350 nM; on PI 3-kinase beta [7], 3530 nM; on mTOR, 8640 nM; at PI 3-kinase gamma [8], 39 nM; in [9] it was 1110 nM; at PI 3-kinase gamma [10], 117 nM. In addition, the “Assay M RLM CI(int)” value in data set [5] amounted to 38 µL/min/mg.
